Reference: paper PMC6240685, “Strong Inhibitory Effect, Low Cytotoxicity and High Plasma Stability of Steroidal Inhibitors of N-Methyl-D-Aspartate Receptors With C-3 Amide Structural Motif” (Frontiers in Pharmacology, 2018)

Biological target: T1, GluN1/GluN2D receptors (Rattus norvegicus, UniProt P35439+Q62645)
T1 construct: expressed in transfected cells; host or cells: HEK293
Test: Patch-clamp inhibition of GluN1/GluN2D receptors in transfected HEK293 cells
Format: cell-based
Conditions: 1 mM glutamate and 10 μM glycine
Experimental: FIGURE 7 Concentration–response properties of compound 6 on GluN1/GluN2A-D receptors. (A) Examples of traces obtained from HEK293 cells transfected with cDNAs encoding GluN1/GluN2A, GluN1/GluN2B, GluN1/GluN2C, and GluN1/GluN2D receptors. Agonists (1 mM glutamate and 10 μM glycine) were applied alone and simultaneously with compound 6 (10 μM) to evaluate the inhibitory effect of compound 6 on NMDAR mediated currents (duration of glutamate and steroid application is indicated by filled and open bars, respectively). (B) Concentration–response curves for the compound 6 effect at GluN1/GluN2A-D receptors. Data points are averaged values of normalized responses from at least four HEK293 cells. Error bars represent SD.
Electrophysiological experiments were performed on HEK293 cells transfected with plasmids encoding rat GluN1-1a/GluN2A-D and GFP genes as described previously, ([Petrovic et al., 2005]; [Cais et al., 2008]; [Korinek et al., 2010]) or on primary hippocampal neurons prepared from P0–P1 rats, plated on collagen/poly-D-lysine-coated glass coverslips at a density of ∼50,000 cells/cm^2, and grown in Neurobasal A medium with B27 Supplement (Gibco). Agonist-induced responses were voltage-clamped at a holding potential of −60 mV. […] Agonist-induced responses were low-pass filtered at 2 kHz, digitally sampled at 5 kHz, and analyzed with pClamp software version 10.5 (Molecular Devices). […]

T1 sequence (Q62645 28-1323, other chains not shown): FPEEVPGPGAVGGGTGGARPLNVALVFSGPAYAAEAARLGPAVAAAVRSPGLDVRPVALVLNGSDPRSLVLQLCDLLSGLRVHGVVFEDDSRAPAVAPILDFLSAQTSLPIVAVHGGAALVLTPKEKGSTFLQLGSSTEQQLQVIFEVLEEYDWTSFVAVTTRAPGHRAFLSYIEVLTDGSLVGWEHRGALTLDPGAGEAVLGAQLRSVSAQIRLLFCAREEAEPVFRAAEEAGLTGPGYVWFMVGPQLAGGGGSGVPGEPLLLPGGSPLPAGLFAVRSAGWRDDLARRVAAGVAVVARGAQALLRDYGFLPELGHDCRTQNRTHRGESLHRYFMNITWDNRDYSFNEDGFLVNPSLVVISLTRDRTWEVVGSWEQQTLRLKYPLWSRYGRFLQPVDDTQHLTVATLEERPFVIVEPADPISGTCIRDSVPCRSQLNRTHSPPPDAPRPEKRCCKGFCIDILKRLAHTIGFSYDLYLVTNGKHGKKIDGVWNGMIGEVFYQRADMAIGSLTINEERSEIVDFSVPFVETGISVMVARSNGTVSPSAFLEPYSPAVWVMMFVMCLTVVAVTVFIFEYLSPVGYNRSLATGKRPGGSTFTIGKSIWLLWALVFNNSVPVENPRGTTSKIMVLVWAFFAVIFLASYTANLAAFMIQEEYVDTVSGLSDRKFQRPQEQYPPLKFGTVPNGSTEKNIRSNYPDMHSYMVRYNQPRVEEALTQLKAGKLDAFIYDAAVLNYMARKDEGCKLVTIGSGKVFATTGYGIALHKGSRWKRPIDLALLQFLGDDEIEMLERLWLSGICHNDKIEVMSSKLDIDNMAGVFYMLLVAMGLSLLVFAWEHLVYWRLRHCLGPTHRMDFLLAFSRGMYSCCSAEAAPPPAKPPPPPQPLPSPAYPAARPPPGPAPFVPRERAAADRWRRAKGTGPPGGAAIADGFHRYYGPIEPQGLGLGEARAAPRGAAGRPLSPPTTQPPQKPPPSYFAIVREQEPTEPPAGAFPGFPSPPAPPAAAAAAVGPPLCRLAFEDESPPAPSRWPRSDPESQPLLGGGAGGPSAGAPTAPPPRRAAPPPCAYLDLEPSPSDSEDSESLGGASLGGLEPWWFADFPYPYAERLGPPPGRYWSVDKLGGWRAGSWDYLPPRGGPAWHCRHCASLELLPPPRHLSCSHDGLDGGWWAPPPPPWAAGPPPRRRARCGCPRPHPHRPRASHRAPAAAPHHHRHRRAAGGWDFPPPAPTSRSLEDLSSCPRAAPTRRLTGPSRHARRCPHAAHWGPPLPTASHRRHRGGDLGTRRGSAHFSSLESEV

## C[C@@]12CCC[C@H]1[C@@H]1CC[C@@H]3C[C@H](NC(=O)[C@@H](N)CC(=O)O)CC[C@]3(C)[C@H]1CC2 [Compound 6, (S)-3-amino-4-(((3R,5R,8S,9S,10S,13S,14S)-10,13-dimethylhexadecahydro-1H-cyclopenta[a]phenanthren-3-yl)amino)-4-oxobutanoic acid]
  h ± SD (apparent Hill coefficient): 1.6 ± 0.3
concentration-response
  IC50: 8.4 ± 1 µM
